Some test systems named below: MCF7; OVCAR-5; KM12; HT-29; IGROV-1; OVCAR-8; SK-MEL-5; SK-MEL-2; ACHN; MDA-MB-231; DU-145; MOLT-4; Malme-3M; SR; T47D; UACC-257; HOP-62; LOX IMVI; SK-MEL-28; HL-60.
What all share (experiment): inhibition of tumour cell growth, NCI panel, 48 h

Structures are written as SMILES.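 Method: 48-hour compound exposure of cells in 96-well plates, five concentrations, linear interpolation of endpoints. GI50: concentration for 50% inhibition of growth.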 The source made the active and inactive calls. Cut-off read from the data, not from the text of the source: active = GI50 up to about 1.1 µM and inactive = higher.

`CCOC(=O)C1=CN(Cc2ccccc2)C2ON=C(c3ccc(Cl)cc3)C2C1` (stereo not given): the GI50 with MCF7 is 23.6 µM (inactive); in the test on OVCAR-5, 34.4 µM (inactive); in the test on KM12 it was 48.2 µM (inactive); in the test with HT-29, 48.6 µM (inactive); in the test on IGROV-1, 29.5 µM (inactive); with OVCAR-8, > 54 µM (inactive). Also, the GI50 in the test on SK-MEL-5 is 16.5 µM (inactive); in the test with SK-MEL-2 it was 15.2 µM (inactive); in the test on ACHN, 31 µM (inactive); with MDA-MB-231, 10.6 µM (inactive); in the test on DU-145, > 55 µM (inactive); in the test with MOLT-4, 5.4 µM (inactive). Further, the GI50 is > 55 µM (inactive) in the test on Malme-3M; > 23.9 µM (inactive) with SR; 5.61 µM (inactive) with T47D; 33.3 µM (inactive) in the test with UACC-257; > 55.5 µM (inactive) with HOP-62; > 57.5 µM (inactive) in the test on LOX IMVI. For the same molecule, the GI50 in the test on SK-MEL-28 was > 56.2 µM (inactive); with HL-60, 23.4 µM (inactive).

With `O=C(O)C(Cc1ccccc1)NCc1c(O)ccc2c(-c3ccccc3)cc(=O)oc12` (stereo not given), the GI50 with MCF7, in the test on OVCAR-5, in the test with KM12, in the test with HT-29, with IGROV-1 and with OVCAR-8 was > 100 µM (inactive) in each case. The GI50 in the test with SK-MEL-5, in the test on SK-MEL-2, in the test on ACHN, in the test with MDA-MB-231, with DU-145 and in the test with MOLT-4 was > 100 µM (inactive) each time. Besides, the GI50 with Malme-3M, in the test on SR, with T47D, in the test with UACC-257, in the test on HOP-62 and in the test with LOX IMVI was > 100 µM (inactive) each time. Also, the GI50 in the test with SK-MEL-28 and in the test with HL-60 was > 100 µM (inactive) throughout.

Regarding `CCOC(=O)C1=C(C)N(Cc2ccc(Cl)cc2Cl)C2(O)C(OC)CC(=O)C3C(=O)N(c4ccccc4)C(=O)C132` (stereo not given), the GI50 was 1.91 µM (inactive) in the test on MCF7; 2.41 µM (inactive) in the test on OVCAR-5; 2.63 µM (inactive) in the test on KM12; 1.75 µM (inactive) in the test on HT-29; 4.34 µM (inactive) in the test with IGROV-1; 1.95 µM (inactive) in the test on OVCAR-8. Moreover, the GI50 is 3.97 µM (inactive) with SK-MEL-5; 1.28 µM (inactive) in the test on SK-MEL-2; 3.12 µM (inactive) with ACHN; 1.38 µM (inactive) in the test with MDA-MB-231; 1.06 µM (active) in the test with DU-145; 1.79 µM (inactive) in the test with MOLT-4. The GI50 is 10.6 µM (inactive) in the test with Malme-3M; 1.57 µM (inactive) in the test with SR; 0.244 µM (active) in the test on T47D; 3.52 µM (inactive) with UACC-257; 0.995 µM (active) in the test on HOP-62; 1.05 µM (active) in the test on LOX IMVI. Moreover, the GI50 with SK-MEL-28 is 1.97 µM (inactive); in the test with HL-60, 2.24 µM (inactive).

For `CCOC(=O)/C=C(/C(=O)OCC)n1cc(C)c(=O)n(/C(=C/C(=O)OCC)C(=O)OCC)c1=O`, the GI50 with MCF7 is 1.91 µM (inactive); in the test on OVCAR-5, 6.62 µM (inactive); in the test on KM12 it was 13.9 µM (inactive); with HT-29 it was 2.69 µM (inactive); with IGROV-1, 4.75 µM (inactive); with OVCAR-8, 5.35 µM (inactive). The GI50 is 7.31 µM (inactive) in the test on SK-MEL-5; 14.7 µM (inactive) in the test with SK-MEL-2; 1.89 µM (inactive) in the test with ACHN; 3.4 µM (inactive) in the test on MDA-MB-231; 13.7 µM (inactive) in the test with DU-145; 1.32 µM (inactive) in the test with MOLT-4. For the same molecule, the GI50 in the test on Malme-3M is 1.85 µM (inactive); in the test on SR it was 1.89 µM (inactive); in the test with T47D it was 2.64 µM (inactive); in the test on UACC-257, 4.9 µM (inactive); in the test on HOP-62 it was 24.8 µM (inactive); in the test with LOX IMVI it was 1.74 µM (inactive). The GI50 is 2.19 µM (inactive) in the test with SK-MEL-28 and 0.255 µM (active) in the test on HL-60.

Turning to `CC1=C(C(=O)OCCO[N+](=O)[O-])C(c2cccc([N+](=O)[O-])c2)C(C(=O)OC(C)C)=C(C)N1` (stereo not given), the GI50 in the test with MCF7 was 19.6 µM (inactive); with OVCAR-5, 14.9 µM (inactive); in the test with KM12, 11 µM (inactive); with HT-29, 15.2 µM (inactive); with IGROV-1, 14 µM (inactive); with OVCAR-8, 16.1 µM (inactive). Further, the GI50 is 12.8 µM (inactive) in the test with SK-MEL-5; 13 µM (inactive) in the test on SK-MEL-2; 14.2 µM (inactive) in the test with ACHN; 13.3 µM (inactive) in the test on MDA-MB-231; 25.3 µM (inactive) with DU-145; 3.23 µM (inactive) with MOLT-4. Further, the GI50 with Malme-3M is 17.7 µM (inactive); in the test with SR it was 24.8 µM (inactive); in the test on T47D it was 15.6 µM (inactive); in the test on UACC-257, 12.3 µM (inactive); in the test on HOP-62, 16.6 µM (inactive); in the test on LOX IMVI it was 16.9 µM (inactive). The GI50 is 14.3 µM (inactive) in the test with SK-MEL-28 and > 100 µM (inactive) in the test with HL-60.

Regarding `NS(=O)(=O)c1ccc(NC(=O)c2ccc3nc4ccccc4c(Nc4ccc(S(N)(=O)=O)cc4)c3c2)cc1`, the GI50 with MCF7 was > 100 µM (inactive); with OVCAR-5, > 100 µM (inactive); in the test on KM12 it was 12.1 µM (inactive); in the test on HT-29 it was > 100 µM (inactive); in the test with IGROV-1 it was > 100 µM (inactive); with OVCAR-8, > 100 µM (inactive). Moreover, the GI50 in the test on SK-MEL-5, in the test on SK-MEL-2, with ACHN, with MDA-MB-231, with DU-145 and with MOLT-4 was > 100 µM (inactive) each time. For the same molecule, the GI50 with Malme-3M, in the test on SR, in the test with T47D, in the test on UACC-257, in the test on HOP-62 and in the test with LOX IMVI was > 100 µM (inactive) in each case. Moreover, the GI50 with SK-MEL-28 and with HL-60 was > 100 µM (inactive) each time.

Take `CC(=O)O[C@H]1[C@H](OC(C)=O)[C@@H](CN=[N+]=[N-])OCO[C@@H]1CN=[N+]=[N-]`: the GI50 with MCF7, in the test with OVCAR-5, in the test with KM12, with HT-29, in the test on IGROV-1 and in the test with OVCAR-8 was > 100 µM (inactive) in each case. Moreover, the GI50 in the test on SK-MEL-5, in the test with SK-MEL-2, in the test on ACHN, in the test with MDA-MB-231, in the test with DU-145 and with MOLT-4 was > 100 µM (inactive) in each case. Moreover, the GI50 in the test with Malme-3M, with SR, in the test with T47D, with UACC-257, in the test on HOP-62 and with LOX IMVI was > 100 µM (inactive) in each case. Also, the GI50 in the test on SK-MEL-28 and in the test on HL-60 was > 100 µM (inactive) throughout.
